Results published in US8273738B2, “Imidazole derivatives” (priority 2006, dated 2012).

Columns and labels:
CB2 receptor = target: T1, CB2 receptor (Rattus norvegicus, UniProt Q9QZN9); assay: Cannabinoid CB2 receptor-binding activity ([3H]CP55940 binding experiment), rat spleen membrane specimen
T1 construct: from tissue; host or cells: rat spleen membrane specimen
T1 sequence (Q9QZN9 1-360): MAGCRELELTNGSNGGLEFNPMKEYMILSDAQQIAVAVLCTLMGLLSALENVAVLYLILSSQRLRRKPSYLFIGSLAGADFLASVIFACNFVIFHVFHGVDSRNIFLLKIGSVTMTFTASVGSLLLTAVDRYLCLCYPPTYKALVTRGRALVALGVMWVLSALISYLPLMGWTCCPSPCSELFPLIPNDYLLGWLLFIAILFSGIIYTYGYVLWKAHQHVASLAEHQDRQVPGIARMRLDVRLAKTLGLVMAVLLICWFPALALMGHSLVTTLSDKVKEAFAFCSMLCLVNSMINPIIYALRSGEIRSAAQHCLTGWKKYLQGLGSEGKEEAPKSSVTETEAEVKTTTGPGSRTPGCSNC
Description: A test was carried out according to the method of Hillard et al. [The Journal of Pharmacology and Experimental Therapeutics, vol. 289, p. 1427 (1999)]. A rat forebrain membrane specimen and a rat spleen membrane specimen were prepared and used in a binding experiment for a CB1 receptor and a binding experiment for a CB2 receptor, respectively. The membrane specimen (forebrain: final concentration of 0.5 mg of protein/mL, spleen: final concentration of 2 mg of protein/mL) was incubated together with a test compound and [^3H]CP55940 (manufactured by PerkinElmer) ((−)-cis-3-[2-hydroxy-[3,5-^3H]-4-(1,1-dimethylheptyl)phenyl]-trans-4-(3-hydroxypropyl)cyclohexanol)) (final concentration: 0.5 nmol/L) in an assay buffer (50 mmol/L Tris-HCl buffer (pH 7.4), 1 mmol/L EDTA and 3 mmol/L MgCl2) containing 0.1% bovine serum albumin at 25° C. for 1 hour, and the resulting mixture was filtered using a glass filter GF/C (manufactured by Whatman) treated with 1% polyethyleneimine. After the glass filter was washed with the assay buffer containing 0.2% bovine serum albumin, the radioactivity on the glass filter was measured using a liquid scintillation counter (TRI-CARB 2700TR, manufactured by Packard). The binding amount in the presence of 10 μmol/L […] (manufactured by Tocris) ((R)-(+)-[2,3-dihydro-5-methyl-3-(4-morpholinylmethyl)pyrrolo[1,2,3-de]-1,4-benzoxazin-6-yl]-1-naphthalenylmethanone) was considered to be a non-specific binding amount, and a difference between the total binding amount and the non-specific binding amount was considered to be a specific binding amount. The 50% inhibitory concentration (IC50 value) of the test compound against the specific binding was obtained, and the Ki value of the test substance was calculated from the 50% inhibitory concentration and the Kd value of the [^3H]CP55940 binding.

human CB2 receptor = target: T2, human CB2 receptor (Homo sapiens, UniProt P34972); assay: GTPγS binding experiment via human CB2 receptor (membrane fraction of CHO-K1 cells); format: biochemical; conditions: for Emax: read-out: Emax value (maximum effect of CP55940 as 100%)
T2 construct: expressed in transfected cells
T2 sequence (P34972 whole entry): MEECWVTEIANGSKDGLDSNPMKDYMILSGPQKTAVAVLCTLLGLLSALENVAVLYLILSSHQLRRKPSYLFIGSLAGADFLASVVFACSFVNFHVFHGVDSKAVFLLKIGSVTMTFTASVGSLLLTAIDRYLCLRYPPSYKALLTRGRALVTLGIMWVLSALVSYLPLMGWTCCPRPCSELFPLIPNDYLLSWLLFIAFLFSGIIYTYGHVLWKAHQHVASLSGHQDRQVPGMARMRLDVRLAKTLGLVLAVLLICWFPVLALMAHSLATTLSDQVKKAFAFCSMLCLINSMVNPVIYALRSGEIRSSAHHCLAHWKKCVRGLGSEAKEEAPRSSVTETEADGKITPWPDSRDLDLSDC
Description: A test was carried out according to the method of Hillard et al. [The Journal of Pharmacology and Experimental Therapeutics, vol. 289, p. 1427 (1999)]. As for a membrane specimen, a membrane fraction was prepared from CHO-K1 cells in which a human CB2 receptor [Nature, vol. 365, pp. 61-65 (1993)] was stably expressed and used. The membrane specimen (final concentration: 40 μg of protein/mL) was incubated together with a test compound and [^35S]GTPγS (manufactured by PerkinElmer) (final concentration: 0.05 nmol/L) in an assay buffer (50 mmol/L Tris-HCl buffer (pH 7.4), 100 mmol/L NaCl, 1 mmol/L EDTA, 3 mmol/L MgCl2, and 0.1% bovine serum albumin) containing 20 μmol/L guanosine 5′-diphosphate (GDP) at 30° C. for 1 hour, and the resulting mixture was filtered using a glass filter GF/B (manufactured by Whatman). After the glass filter was washed with the assay buffer, the radioactivity on the glass filter was measured using a liquid scintillation counter (TRI-CARB 2700TR, manufactured by Packard). The binding amount in the presence of 10 μmol/L GTPγS was considered to be a non-specific binding amount, and a difference between the total binding amount and the non-specific binding amount was considered to be a specific binding amount. The ratio of increase in the specific binding amount in the presence of the test compound to the specific binding amount in the absence of the test compound was considered to be an agonistic activity of the test compound. The concentration of the test compound that produces 50% of the maximum effect (EC50 value) was calculated by performing a nonlinear regression analysis using the concentration-response data. The percentage of the maximum effect of the test compound (Emax value) was calculated by considering the maximum effect of CP55940 (manufactured by Tocris) measured at the same time as 100%.

[1] = tested on: rats with chronic constriction nerve injury; assay: Analgesic effect in rats with chronic constriction nerve injury (von Frey filament); format: in vivo, rat; conditions: oral, dose of 50 mg/kg or less, one hour after administration, von Frey filaments
Description: Rats with chronic constriction nerve injury were produced by partially modifying the method of Mosconi and Kruger et al. (Pain, vol. 64, pp. 37-57 (1996))
Male Crl:CD(SD) rats were used for the experiments. Under pentobarbital anesthesia, the sciatic nerve of the left hind limb of the rat was exfoliated, and the exfoliated region was wrapped with a polyethylene tube (trade name: Intramedic, size: PE-60, manufactured by Becton Dickinson and Company) of 2 mm in length. On days 14 to 21 after the surgery, the rats were placed in an acrylic connected cage with a wire mesh floor (900 mm (length)×210 mm (depth)×140 mm (height)) consisting of 4 cages connected in a row and allowed to acclimate to the environment for at least 20 minutes, and then, the pain was evaluated.
The von Frey filament (trade name: touch test sensory evaluator, Model number: model 58011, manufactured by Muromachi Kikai) was used to evaluate pain, and the results were calculated as a pain threshold. That is, by using a von Frey filament of different stimulus intensity, stimulation was given to the plantar surface of the injured side of rats with chronic constriction nerve injury, and the stimulus intensity to cause paw withdrawal response was obtained. Then, the 50% pain threshold (Paw withdrawal threshold) (g) was calculated by the up down method of Dixon [Annual Review of Pharmacology and Toxicology, vol. 20, pp. 441-462 (1980)].
In the evaluation of the test compound, rats with 50% pain threshold of less than 4 g were used, and the test compound was dissolved in a 0.5% aqueous methyl cellulose solution and orally administered at a dose of 5 mL/kg. One hour after the administration, the pain threshold was measured using von Frey filaments.

Row | SMILES | Ki (CB2 receptor) [nM] | EC50 (human CB2 receptor) [nM] | Emax (human CB2 receptor) [%] | 50% pain threshold (paw withdrawal threshold) [1]
1 | CN(C)C(=O)c1cncc(-c2cn(CC3CCOCC3)c(C(C)(C)C)n2)n1 [Compound 153, 6-[2-tert-Butyl-1-(tetrahydropyran-4-ylmethyl)-1H-imidazol-4-yl]-N,N-dimethylpyrazine-2-carboxamide] | < 1000 | < 1000 | > 30 | significantly increased the pain threshold
2 | CCN(C)C(=O)c1cncc(-c2cn(CC3(F)CCOCC3)c(C(C)(C)C)n2)n1 [Compound 185, 6-[2-tert-Butyl-1-(4-fluorotetrahydropyran-4-ylmethyl)-1H-imidazol-4-yl]-N-ethyl-N-methylpyrazine-2-carboxamide] | < 1000 | < 1000 | > 30 | significantly increased the pain threshold
3 | CN(C)C(=O)c1cncc(-c2cn(CC3(F)CCOCC3)c(C(C)(C)C)n2)n1 [Compound 186, 6-[2-tert-Butyl-1-(4-fluorotetrahydropyran-4-ylmethyl)-1H-imidazol-4-yl]-N,N-dimethylpyrazine-2-carboxamide] | < 1000 | < 1000 | > 30 | significantly increased the pain threshold
4 | CN(CC(F)(F)F)C(=O)c1cc(-c2cn(CC3CCOCC3)c(C(C)(C)C)n2)on1 [Compound 204, 5-[2-tert-Butyl-1-(tetrahydropyran-4-ylmethyl)-1H-imidazol-4-yl]-N-methyl-N-(2,2,2-trifluoroethyl)isoxazole-3-carboxamide] | < 1000 | < 1000 | > 30 | significantly increased the pain threshold
5 | CN(C(=O)c1cncc(-c2cn(CC3CCOCC3)c(C(C)(C)C)n2)n1)C1CC1 [Compound 205, 6-[2-tert-Butyl-1-(tetrahydropyran-4-ylmethyl)-1H-imidazol-4-yl]-N-cyclopropyl-N-methylpyrazine-2-carboxamide] | < 1000 | < 1000 | > 30 | significantly increased the pain threshold
6 | CN(CC1CC1)C(=O)c1cncc(-c2cn(CC3CCOCC3)c(C(C)(C)C)n2)n1 [Compound 206, 6-[2-tert-Butyl-1-(tetrahydropyran-4-ylmethyl)-1H-imidazol-4-yl]-N-cyclopropylmethyl-N-methylpyrazine-2-carboxamide] | < 1000 | < 1000 | > 30 | significantly increased the pain threshold
